Source: BigSolDB 2.1

CCc1nnc(NC(=O)c2ccc([N+](=O)[O-])cc2)s1
solubility (mole fraction)
Details	288.15 K	293.15 K	298.15 K	303.15 K	308.15 K	313.15 K	318.15 K
in ethanol	2.81e-05	3.17e-05	3.91e-05	4.87e-05	5.95e-05	7.34e-05	8.87e-05
in n-hexane	6.2e-06	7.4e-06	9.5e-06	1.19e-05	1.44e-05	1.79e-05	2.11e-05
in n-octanol	4.34e-05	5.22e-05	6.52e-05	8.06e-05	9.61e-05	0.000118	0.00014
